Experimental data: the supplement of paper PMC10307832

Legend:
Assay in all cases: relative viability (nuclei count vs DMSO), 5 days (fraction); higher = more cells survive
Carfilzomib = compound: CC(C)C[C@H](NC(=O)[C@H](CCc1ccccc1)NC(=O)CN1CCOCC1)C(=O)N[C@@H](Cc1ccccc1)C(=O)N[C@@H](CC(C)C)C(=O)[C@@]1(C)CO1 [Carfilzomib]
Procedure, shortened: (§1)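 Only plates meeting two conditions passed: control CV below 25% and at least one doubling. Lung cancer cell lines, kept overnight at 37 °C in 1536-well plates, were pinned with five library-drug doses (not always all listed) √10 apart on vehicle-anchored plates and grown 5 days without medium change. A one-step fix, permeabilisation and Hoechst stain preceded 4× imaging and MetaXpress nuclear counting. Viability equals treated-well nuclei divided by vehicle-well nuclei, as the median over plates.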

Crizotinib = compound: C[C@@H](Oc1cc(-c2cnn(C3CCNCC3)c2)cnc1N)c1c(Cl)ccc(F)c1Cl [Crizotinib]
Procedure, shortened: as §1

Olaparib = compound: O=C(c1cc(Cc2n[nH]c(=O)c3ccccc23)ccc1F)N1CCN(C(=O)C2CC2)CC1 [Olaparib]
Procedure, shortened: as §1

Row | Cell Line | relative viability (Carfilzomib; 0.001 µM) | relative viability (Carfilzomib; 0.003162 µM) | relative viability (Carfilzomib; 0.01 µM) | relative viability (Carfilzomib; 0.03162 µM) | relative viability (Carfilzomib; 0.1 µM) | relative viability (Crizotinib; 0.01 µM) | relative viability (Crizotinib; 0.03162 µM) | relative viability (Crizotinib; 0.1 µM) | relative viability (Crizotinib; 0.3162 µM) | relative viability (Crizotinib; 1 µM) | relative viability (Crizotinib; 1 µM, anchor plate) | relative viability (Olaparib; 0.08 µM) | relative viability (Olaparib; 0.253 µM) | relative viability (Olaparib; 2.53 µM) | relative viability (Olaparib; 8 µM) | relative viability (Olaparib; 8 µM, anchor plate)
1 | NCI-H1355 | 0.876 | 1.04 | 1.01 | 0.946 | 0.18 | 0.983 | 1.01 | 1.05 | 0.797 | 0.981 | 1.05 | 1.02 | 0.962 | 0.981 | 0.91 | 0.754
2 | NCI-H1395 | 0.764 | 1.08 | 0.669 | 0.437 | 0.34 | 0.819 | 0.943 | 1.05 | 0.811 | 0.739 | – | 1.01 | 0.806 | 0.663 | 0.538 | 0.479
3 | NCI-H1437 | 0.952 | 1.07 | 1.04 | 0.884 | 0.358 | 0.951 | 1.03 | 0.996 | 0.884 | 1.08 | – | 1.02 | 0.873 | 0.927 | 0.814 | 0.617
4 | NCI-H1563 | 0.945 | 1.08 | 1.03 | 0.934 | 0.613 | 0.887 | 0.995 | 0.908 | 1 | 1.06 | 0.843 | 1.16 | 0.902 | 1.01 | 0.912 | –
5 | NCI-H1623 | 0.972 | 1.12 | 1.04 | 0.885 | 0.33 | 0.891 | 1.01 | 0.915 | 0.89 | 0.891 | – | 1.07 | 0.987 | 0.917 | 0.791 | –
6 | NCI-H1648 | 0.845 | 1.11 | 1.14 | 0.725 | 0.416 | 0.742 | 1.33 | 0.651 | 0.958 | 1.1 | – | 0.956 | 0.908 | – | 1.2 | 0.818
7 | NCI-H1650 | 0.986 | 0.975 | 0.341 | 0.141 | 0.186 | 0.842 | 0.993 | 0.969 | 0.891 | 0.931 | 1.02 | 1.21 | 0.848 | 0.785 | 0.871 | 0.812
8 | NCI-H1651 | 0.964 | 1.01 | 0.879 | 0.327 | 0.12 | 0.954 | 0.994 | 0.938 | 0.991 | 1.08 | 0.884 | 0.934 | 0.902 | 0.755 | 0.494 | 0.188
9 | NCI-H1666 | 1.02 | 1.07 | 1.06 | 0.981 | 0.437 | 0.952 | 1.02 | 0.985 | 0.971 | 0.987 | 1.04 | 0.985 | 0.916 | 0.821 | 0.838 | 0.738
10 | NCI-H1703 | 0.839 | 1.22 | 0.439 | 0.132 | 0.128 | 0.794 | 1.08 | 0.918 | 0.968 | 1.14 | 0.728 | 1.1 | 0.826 | 0.983 | 0.974 | 0.453
11 | NCI-H1734 | 0.972 | 1.04 | 0.904 | 0.354 | 0.124 | 0.913 | – | 0.886 | – | 0.955 | 0.672 | 1.06 | 0.935 | 0.862 | 0.726 | 0.635
12 | NCI-H1755 | 1.01 | 1.02 | 1 | 1.01 | 0.788 | 0.943 | 0.987 | – | 0.944 | 1 | 0.863 | 1.08 | 0.89 | 1.05 | 0.939 | 0.881
13 | NCI-H1792 | 0.827 | 0.962 | 0.957 | 0.658 | 0.388 | 0.886 | 1.01 | 1.09 | – | 0.909 | 0.997 | 0.923 | 0.725 | 0.773 | 0.605 | 0.419
14 | NCI-H1915 | 0.954 | 1.08 | 0.871 | 1 | 0.184 | – | 0.99 | 1.02 | – | 1.02 | 0.908 | 1.02 | 0.892 | 0.779 | 0.559 | 0.269
15 | NCI-H1944 | 0.907 | 1.03 | 0.927 | 1 | 0.343 | 0.879 | 0.992 | 0.907 | 1.02 | 0.893 | 1.1 | 0.921 | 0.806 | 0.656 | 0.646 | 0.419
16 | NCI-H1975 | 0.946 | 1.05 | 0.808 | 0.146 | 0.137 | 0.884 | 0.992 | 0.967 | 0.921 | 1.02 | 0.979 | 0.985 | 0.919 | 0.912 | 0.901 | 0.789
17 | NCI-H1993 | 0.943 | 0.999 | 1.01 | 0.818 | 0.426 | 0.859 | 0.978 | 0.807 | 0.798 | 0.753 | 0.872 | 0.909 | 0.956 | 0.978 | 1.01 | 1.12
18 | NCI-H2009 | 1.07 | 1.05 | 1.02 | 0.44 | 0.0846 | 0.953 | 1 | 1.05 | 0.986 | 1 | 1.04 | 1.07 | 0.959 | 0.94 | 0.9 | 0.679

Row | Cell Line | relative viability (Carfilzomib; 0.001 µM) | relative viability (Carfilzomib; 0.003162 µM) | relative viability (Carfilzomib; 0.01 µM) | relative viability (Carfilzomib; 0.03162 µM) | relative viability (Carfilzomib; 0.1 µM) | relative viability (Crizotinib; 0.01 µM) | relative viability (Crizotinib; 0.03162 µM) | relative viability (Crizotinib; 0.1 µM) | relative viability (Crizotinib; 0.3162 µM) | relative viability (Crizotinib; 1 µM) | relative viability (Crizotinib; 1 µM, anchor plate) | relative viability (Olaparib; 0.08 µM) | relative viability (Olaparib; 0.253 µM) | relative viability (Olaparib; 2.53 µM) | relative viability (Olaparib; 8 µM) | relative viability (Olaparib; 8 µM, anchor plate)
19 | NCI-H2023 | 1.01 | 0.965 | 0.944 | 0.436 | 0.0808 | 0.85 | 0.982 | 0.974 | 0.761 | 0.734 | 0.676 | 0.98 | 0.944 | 0.901 | 0.685 | 0.478
20 | NCI-H2085 | 1.02 | 1.03 | 0.962 | 0.547 | 0.323 | 0.936 | 1.03 | 0.977 | 1 | 0.975 | 0.882 | 1.16 | 0.912 | 0.983 | 0.959 | 0.769
21 | NCI-H2087 | 0.989 | 1.06 | 0.586 | 0.0747 | 0.0676 | 0.871 | 0.982 | 1.22 | 0.788 | 1.03 | 0.811 | 1.31 | 0.929 | 0.944 | 0.662 | 0.601
22 | NCI-H2126 | 0.994 | 1.07 | 1.03 | 0.93 | 0.568 | 0.934 | 1.02 | 0.959 | 0.914 | 0.993 | – | 1.07 | 0.984 | 0.982 | 1.01 | 0.907
23 | NCI-H2170 | 0.931 | 0.99 | 1.07 | 0.969 | 0.443 | – | 0.985 | 0.977 | 0.928 | 1.01 | 1.2 | 0.973 | 0.875 | 0.971 | 0.915 | 0.599
24 | NCI-H2228 | 0.975 | 1.15 | 0.905 | 0.157 | 0.101 | 1.16 | 1.04 | 1 | 0.679 | 0.585 | 0.482 | 1.12 | 0.845 | 0.777 | 0.609 | 0.719
25 | NCI-H2342 | 0.975 | 0.957 | 1.06 | 0.968 | 0.825 | 0.891 | 0.999 | – | 0.867 | 0.882 | – | 0.974 | 0.951 | 0.936 | 0.941 | 0.452
26 | NCI-H2347 | 0.971 | 1.08 | 1.03 | 0.511 | 0.393 | 0.965 | 0.974 | 1.07 | 0.973 | 1.06 | 0.73 | 1.09 | 0.877 | 0.877 | 0.765 | 0.583
27 | NCI-H2405 | 0.704 | 1.15 | 1.1 | 0.8 | 0.277 | 1.01 | 0.977 | 0.909 | 0.949 | 0.973 | 0.789 | 1.09 | 0.884 | 0.945 | 1.02 | 0.853
28 | NCI-H3122 | 1.03 | 1.05 | 1.03 | 0.978 | 0.455 | 0.944 | 0.988 | 1.02 | 0.864 | 0.798 | 0.275 | 1 | 0.966 | 0.946 | 0.865 | 0.607
29 | PC-3 [JPC-3] | 1 | 1.07 | 1.09 | 0.896 | 0.39 | 0.978 | 1.04 | 1.15 | 0.992 | 0.961 | 0.97 | 1.06 | 0.907 | 1.12 | 0.989 | 1.1
30 | PC-14 | 1.03 | 1.13 | 1.06 | 0.29 | 0.0816 | 0.92 | 1.01 | 1.02 | 0.963 | 0.986 | – | 1.14 | 0.849 | 0.954 | 0.682 | 0.285
31 | RERF-LC-KJ | 0.923 | 1.03 | 1.05 | 0.683 | 0.259 | 0.944 | 1.06 | 1.02 | 0.927 | 1.05 | 0.819 | 1.06 | 0.943 | 0.947 | 0.971 | 0.89
32 | SK-LU-1 | 0.968 | 1.22 | 1 | 0.249 | 0.187 | 1.06 | 1.07 | 1.02 | 1.05 | 1.08 | 0.852 | 1.13 | 0.906 | 0.926 | 0.735 | 0.44
33 | SK-MES-1 | 0.987 | 1.05 | 1.06 | 0.782 | 0.186 | 0.951 | 0.999 | 1.02 | 0.97 | 0.967 | 0.991 | 1.09 | 0.892 | 0.96 | 0.776 | 0.731
34 | SW 900 | 0.747 | 0.883 | 0.288 | 0.161 | 0.192 | 0.811 | 0.97 | 0.93 | 0.787 | 0.952 | – | 0.879 | 0.855 | 0.715 | 0.716 | 0.905
35 | SW 1573 | 0.957 | 1.18 | 0.77 | 0.173 | 0.0655 | 0.941 | 0.999 | 0.917 | 0.885 | 0.974 | 0.793 | 1.1 | 0.896 | 0.825 | 0.633 | 0.512
36 | UMC-11 | 0.947 | 1.03 | 0.987 | 0.854 | 0.578 | 0.898 | 0.972 | 0.91 | 0.636 | 1.01 | 0.606 | 1.03 | 0.894 | 0.758 | 0.492 | 0.373
